# Assay results from the NIST ThermoML archive (doi:10.1016/j.jct.2015.08.014).
# ± gives the expanded uncertainty stated by the source.
# Assay: xn = mol fraction of the nth substance listed
# Conditions: 100 kPa, Liquid; for electrical conductivity: Alternating current cell with electrodes; for mass density: Vibrating tube method; for viscosity: Capillary tube (Ostwald / Ubbelohde) method
compound,measurement,setting,value
CCCC[N+]1(C)CCCC1.N#CN=C=[N-] [1-butyl-1-methylpyrrolidinium dicyanamide] + O=C1CCCO1,electrical conductivity,"303.15 K, Frequency=0.00857143 MHz, x1 = 0.2493",2.86 ± 0.029 S/m
same,electrical conductivity,"303.15 K, Frequency=0.00857143 MHz, x1 = 0.3029",2.79 ± 0.028 S/m
same,electrical conductivity,"303.15 K, Frequency=0.00857143 MHz, x1 = 0.3845",2.62 ± 0.026 S/m
same,electrical conductivity,"303.15 K, Frequency=0.00857143 MHz, x1 = 0.4985",2.33 ± 0.024 S/m
same,electrical conductivity,"303.15 K, Frequency=0.00857143 MHz, x1 = 0.6954",1.913 ± 0.019 S/m
same,electrical conductivity,"303.15 K, Frequency=0.00857143 MHz, x1 = 0.9013",1.609 ± 0.016 S/m
same,electrical conductivity,"303.15 K, Frequency=0.00857143 MHz, x1 = 1",1.527 ± 0.015 S/m
same,electrical conductivity,"303.15 K, Frequency=0.00892857 MHz, x1 = 0.0463",1.58 ± 0.028 S/m
same,electrical conductivity,"303.15 K, Frequency=0.00892857 MHz, x1 = 0.0987",2.38 ± 0.03 S/m
same,electrical conductivity,"303.15 K, Frequency=0.00892857 MHz, x1 = 0.1449",2.71 ± 0.029 S/m
same,electrical conductivity,"303.15 K, Frequency=0.00892857 MHz, x1 = 0.1859",2.902 ± 0.029 S/m
same,electrical conductivity,"303.15 K, Frequency=0.00892857 MHz, x1 = 0.2493",2.86 ± 0.029 S/m
same,electrical conductivity,"303.15 K, Frequency=0.00892857 MHz, x1 = 0.3029",2.79 ± 0.028 S/m
same,electrical conductivity,"303.15 K, Frequency=0.00892857 MHz, x1 = 0.3845",2.62 ± 0.026 S/m
same,electrical conductivity,"303.15 K, Frequency=0.00892857 MHz, x1 = 0.4985",2.33 ± 0.024 S/m
same,electrical conductivity,"303.15 K, Frequency=0.00892857 MHz, x1 = 0.6954",1.913 ± 0.019 S/m
same,electrical conductivity,"303.15 K, Frequency=0.00892857 MHz, x1 = 0.9013",1.609 ± 0.016 S/m
same,electrical conductivity,"303.15 K, Frequency=0.00892857 MHz, x1 = 1",1.527 ± 0.015 S/m
same,electrical conductivity,"303.15 K, Frequency=0.00961538 MHz, x1 = 0.0463",1.58 ± 0.028 S/m
same,electrical conductivity,"303.15 K, Frequency=0.00961538 MHz, x1 = 0.0987",2.38 ± 0.03 S/m
same,electrical conductivity,"303.15 K, Frequency=0.00961538 MHz, x1 = 0.1449",2.71 ± 0.029 S/m
same,electrical conductivity,"303.15 K, Frequency=0.00961538 MHz, x1 = 0.1859",2.903 ± 0.029 S/m
same,electrical conductivity,"303.15 K, Frequency=0.00961538 MHz, x1 = 0.2493",2.86 ± 0.029 S/m
same,electrical conductivity,"303.15 K, Frequency=0.00961538 MHz, x1 = 0.3029",2.79 ± 0.028 S/m
same,electrical conductivity,"303.15 K, Frequency=0.00961538 MHz, x1 = 0.3845",2.62 ± 0.026 S/m
same,electrical conductivity,"303.15 K, Frequency=0.00961538 MHz, x1 = 0.4985",2.33 ± 0.024 S/m
same,electrical conductivity,"303.15 K, Frequency=0.00961538 MHz, x1 = 0.6954",1.913 ± 0.019 S/m
same,electrical conductivity,"303.15 K, Frequency=0.00961538 MHz, x1 = 0.9013",1.609 ± 0.016 S/m
same,electrical conductivity,"303.15 K, Frequency=0.00961538 MHz, x1 = 1",1.527 ± 0.015 S/m
same,electrical conductivity,"303.15 K, Frequency=0.01 MHz, x1 = 0.0463",1.58 ± 0.028 S/m
same,electrical conductivity,"303.15 K, Frequency=0.01 MHz, x1 = 0.0987",2.38 ± 0.03 S/m
same,electrical conductivity,"303.15 K, Frequency=0.01 MHz, x1 = 0.1449",2.71 ± 0.029 S/m
same,electrical conductivity,"303.15 K, Frequency=0.01 MHz, x1 = 0.1859",2.903 ± 0.029 S/m
same,electrical conductivity,"303.15 K, Frequency=0.01 MHz, x1 = 0.2493",2.86 ± 0.029 S/m
same,electrical conductivity,"303.15 K, Frequency=0.01 MHz, x1 = 0.3029",2.79 ± 0.028 S/m
same,electrical conductivity,"303.15 K, Frequency=0.01 MHz, x1 = 0.3845",2.62 ± 0.026 S/m
same,electrical conductivity,"303.15 K, Frequency=0.01 MHz, x1 = 0.4985",2.33 ± 0.024 S/m
same,electrical conductivity,"303.15 K, Frequency=0.01 MHz, x1 = 0.6954",1.913 ± 0.019 S/m
same,electrical conductivity,"303.15 K, Frequency=0.01 MHz, x1 = 0.9013",1.609 ± 0.016 S/m
same,electrical conductivity,"303.15 K, Frequency=0.01 MHz, x1 = 1",1.527 ± 0.015 S/m
same,mass density,"303.15 K, x1 = 0.0987",1099.02 ± 8.8 kg/m3
same,mass density,"303.15 K, x1 = 0.1859",1083.47 ± 8.7 kg/m3
same,mass density,"303.15 K, x1 = 0.3029",1066.18 ± 8.5 kg/m3
same,mass density,"303.15 K, x1 = 0.4985",1044.28 ± 8.4 kg/m3
same,mass density,"303.15 K, x1 = 0.6954",1028.17 ± 8.2 kg/m3
same,mass density,"303.15 K, x1 = 0.9013",1015.57 ± 8.2 kg/m3
same,mass density,"303.15 K, x1 = 1",1010.64 ± 8.1 kg/m3
same,electrical conductivity,"313.15 K, x1 = 0.0463",1.79 ± 0.032 S/m
same,electrical conductivity,"313.15 K, x1 = 0.0987",2.73 ± 0.034 S/m
same,electrical conductivity,"313.15 K, x1 = 0.1449",3.13 ± 0.033 S/m
same,electrical conductivity,"313.15 K, x1 = 0.1859",3.37 ± 0.034 S/m
same,electrical conductivity,"313.15 K, x1 = 0.2493",3.36 ± 0.034 S/m
same,electrical conductivity,"313.15 K, x1 = 0.3029",3.319 ± 0.033 S/m
same,electrical conductivity,"313.15 K, x1 = 0.3845",3.16 ± 0.032 S/m
same,electrical conductivity,"313.15 K, x1 = 0.4985",2.88 ± 0.029 S/m
same,electrical conductivity,"313.15 K, x1 = 0.6954",2.426 ± 0.024 S/m
same,electrical conductivity,"313.15 K, x1 = 0.9013",2.09 ± 0.021 S/m
same,electrical conductivity,"313.15 K, x1 = 1",2 ± 0.02 S/m
same,viscosity,"313.15 K, x1 = 0.0987",2.18 ± 0.05 mPa·s
same,viscosity,"313.15 K, x1 = 0.1859",3.04 ± 0.07 mPa·s
same,viscosity,"313.15 K, x1 = 0.3029",4.52 ± 0.1 mPa·s
same,viscosity,"313.15 K, x1 = 0.4985",7.85 ± 0.17 mPa·s
same,viscosity,"313.15 K, x1 = 0.6954",12.31 ± 0.27 mPa·s
same,viscosity,"313.15 K, x1 = 0.9013",18.01 ± 0.41 mPa·s
same,viscosity,"313.15 K, x1 = 1",21.07 ± 0.48 mPa·s
same,electrical conductivity,"313.15 K, Frequency=0.0005 MHz, x1 = 0.0463",1.78 ± 0.032 S/m
same,electrical conductivity,"313.15 K, Frequency=0.0005 MHz, x1 = 0.0987",2.71 ± 0.034 S/m
same,electrical conductivity,"313.15 K, Frequency=0.0005 MHz, x1 = 0.1449",3.13 ± 0.033 S/m
same,electrical conductivity,"313.15 K, Frequency=0.0005 MHz, x1 = 0.1859",3.34 ± 0.034 S/m
same,electrical conductivity,"313.15 K, Frequency=0.0005 MHz, x1 = 0.2493",3.35 ± 0.034 S/m
same,electrical conductivity,"313.15 K, Frequency=0.0005 MHz, x1 = 0.3029",3.302 ± 0.033 S/m
same,electrical conductivity,"313.15 K, Frequency=0.0005 MHz, x1 = 0.3845",3.15 ± 0.032 S/m
same,electrical conductivity,"313.15 K, Frequency=0.0005 MHz, x1 = 0.4985",2.87 ± 0.029 S/m
same,electrical conductivity,"313.15 K, Frequency=0.0005 MHz, x1 = 0.6954",2.421 ± 0.024 S/m
same,electrical conductivity,"313.15 K, Frequency=0.0005 MHz, x1 = 0.9013",2.08 ± 0.021 S/m
same,electrical conductivity,"313.15 K, Frequency=0.0005 MHz, x1 = 1",1.99 ± 0.02 S/m
same,electrical conductivity,"313.15 K, Frequency=0.001 MHz, x1 = 0.0463",1.78 ± 0.032 S/m
same,electrical conductivity,"313.15 K, Frequency=0.001 MHz, x1 = 0.0987",2.71 ± 0.034 S/m
same,electrical conductivity,"313.15 K, Frequency=0.001 MHz, x1 = 0.1449",3.13 ± 0.033 S/m
same,electrical conductivity,"313.15 K, Frequency=0.001 MHz, x1 = 0.1859",3.35 ± 0.034 S/m
same,electrical conductivity,"313.15 K, Frequency=0.001 MHz, x1 = 0.2493",3.36 ± 0.034 S/m
same,electrical conductivity,"313.15 K, Frequency=0.001 MHz, x1 = 0.3029",3.309 ± 0.033 S/m
same,electrical conductivity,"313.15 K, Frequency=0.001 MHz, x1 = 0.3845",3.15 ± 0.032 S/m
same,electrical conductivity,"313.15 K, Frequency=0.001 MHz, x1 = 0.4985",2.87 ± 0.029 S/m
same,electrical conductivity,"313.15 K, Frequency=0.001 MHz, x1 = 0.6954",2.422 ± 0.024 S/m
same,electrical conductivity,"313.15 K, Frequency=0.001 MHz, x1 = 0.9013",2.08 ± 0.021 S/m
same,electrical conductivity,"313.15 K, Frequency=0.001 MHz, x1 = 1",2 ± 0.02 S/m
same,electrical conductivity,"313.15 K, Frequency=0.0015 MHz, x1 = 0.0463",1.79 ± 0.032 S/m
same,electrical conductivity,"313.15 K, Frequency=0.0015 MHz, x1 = 0.0987",2.72 ± 0.034 S/m
same,electrical conductivity,"313.15 K, Frequency=0.0015 MHz, x1 = 0.1449",3.13 ± 0.033 S/m
same,electrical conductivity,"313.15 K, Frequency=0.0015 MHz, x1 = 0.1859",3.35 ± 0.034 S/m
same,electrical conductivity,"313.15 K, Frequency=0.0015 MHz, x1 = 0.2493",3.36 ± 0.034 S/m
same,electrical conductivity,"313.15 K, Frequency=0.0015 MHz, x1 = 0.3029",3.312 ± 0.033 S/m
same,electrical conductivity,"313.15 K, Frequency=0.0015 MHz, x1 = 0.3845",3.16 ± 0.032 S/m
same,electrical conductivity,"313.15 K, Frequency=0.0015 MHz, x1 = 0.4985",2.87 ± 0.029 S/m
same,electrical conductivity,"313.15 K, Frequency=0.0015 MHz, x1 = 0.6954",2.424 ± 0.024 S/m
same,electrical conductivity,"313.15 K, Frequency=0.0015 MHz, x1 = 0.9013",2.09 ± 0.021 S/m
same,electrical conductivity,"313.15 K, Frequency=0.0015 MHz, x1 = 1",2 ± 0.02 S/m
same,electrical conductivity,"313.15 K, Frequency=0.002 MHz, x1 = 0.0463",1.79 ± 0.032 S/m
same,electrical conductivity,"313.15 K, Frequency=0.002 MHz, x1 = 0.0987",2.72 ± 0.034 S/m
same,electrical conductivity,"313.15 K, Frequency=0.002 MHz, x1 = 0.1449",3.13 ± 0.033 S/m
same,electrical conductivity,"313.15 K, Frequency=0.002 MHz, x1 = 0.1859",3.36 ± 0.034 S/m
same,electrical conductivity,"313.15 K, Frequency=0.002 MHz, x1 = 0.2493",3.36 ± 0.034 S/m
same,electrical conductivity,"313.15 K, Frequency=0.002 MHz, x1 = 0.3029",3.314 ± 0.033 S/m
same,electrical conductivity,"313.15 K, Frequency=0.002 MHz, x1 = 0.3845",3.16 ± 0.032 S/m
same,electrical conductivity,"313.15 K, Frequency=0.002 MHz, x1 = 0.4985",2.87 ± 0.029 S/m
same,electrical conductivity,"313.15 K, Frequency=0.002 MHz, x1 = 0.6954",2.424 ± 0.024 S/m
same,electrical conductivity,"313.15 K, Frequency=0.002 MHz, x1 = 0.9013",2.09 ± 0.021 S/m
